# Measurements from US20210261512A1, “NOVEL COMPOUNDS” (INFLAZOME LIMITED, priority 2018, published 2021).
# Molecular target: NLRP3 (Homo sapiens, UniProt Q96P20)
# Assay: THP-1 cells pyroptosis assay
# Format: cell-based
# Parameters: Seed THP-1 cells (25,000 cells/well) containing 1.0 μg/ml LPS; host or cells: THP-1
# Settings: LPS 1.0 μg/ml, nigericin 5 μM, resazurin readout, 10 μM top dose (Example 2: top dose of 30 μM)
# Summary of the method: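 THP-1 cells (25,000/well) primed with 1 μg/ml LPS in serum-free RPMI, treated with compound (8-point dilution, 10 μM top unless stated; 0.1% DMSO) 3 h at 37°C, then nigericin 5 μM 1 h. Viability read by resazurin (100 μM, 1-2 h) fluorescence; IC50 from 4-parameter fit.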
# Chain of NLRP3 (Q96P20 whole entry): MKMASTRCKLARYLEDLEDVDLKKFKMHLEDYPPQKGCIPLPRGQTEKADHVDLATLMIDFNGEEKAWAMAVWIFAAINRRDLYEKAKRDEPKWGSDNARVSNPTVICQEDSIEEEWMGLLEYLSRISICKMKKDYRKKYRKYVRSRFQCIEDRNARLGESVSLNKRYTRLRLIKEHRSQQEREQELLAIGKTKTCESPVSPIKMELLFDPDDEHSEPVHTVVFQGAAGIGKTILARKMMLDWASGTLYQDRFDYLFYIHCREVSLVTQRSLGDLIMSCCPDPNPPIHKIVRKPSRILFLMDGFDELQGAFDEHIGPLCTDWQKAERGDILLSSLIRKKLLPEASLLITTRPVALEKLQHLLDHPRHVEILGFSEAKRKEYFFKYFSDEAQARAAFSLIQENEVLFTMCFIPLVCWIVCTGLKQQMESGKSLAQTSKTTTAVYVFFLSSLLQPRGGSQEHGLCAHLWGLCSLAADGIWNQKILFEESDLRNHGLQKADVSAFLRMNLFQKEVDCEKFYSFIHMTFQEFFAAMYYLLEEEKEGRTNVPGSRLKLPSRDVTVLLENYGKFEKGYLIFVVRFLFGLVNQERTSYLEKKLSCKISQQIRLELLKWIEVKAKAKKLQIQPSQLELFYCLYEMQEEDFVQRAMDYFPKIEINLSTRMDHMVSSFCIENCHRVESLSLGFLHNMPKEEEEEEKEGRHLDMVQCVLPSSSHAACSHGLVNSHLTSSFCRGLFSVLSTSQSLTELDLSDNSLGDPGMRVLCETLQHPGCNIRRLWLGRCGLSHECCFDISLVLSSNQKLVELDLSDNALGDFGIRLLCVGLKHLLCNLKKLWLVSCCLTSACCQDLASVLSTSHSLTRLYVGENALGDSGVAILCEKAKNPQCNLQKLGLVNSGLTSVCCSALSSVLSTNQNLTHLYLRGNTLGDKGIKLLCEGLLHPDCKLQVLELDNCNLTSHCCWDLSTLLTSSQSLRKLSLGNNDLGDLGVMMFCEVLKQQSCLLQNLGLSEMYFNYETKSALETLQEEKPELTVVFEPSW
row,IC50 [µM],Compound
1,≤ 10,"COc1cc(-c2cc(F)cc(C(C)C)c2Cc2nnc(S(=O)(=O)c3ccccc3)[nH]2)ccn1 [Example 155, 4-(5-fluoro-3-isopropyl-2-((5-(phenylsulfonyl)-4H-1,2,4-triazol-3-yl)-methyl)phenyl)-2-methoxypyridine]"
2,≤ 5,"CS(=O)(=O)c1nnc(Nc2c(-c3ccnc(OCc4ccccc4)c3)ccc3c2CCC3)[nH]1 [Example 234, N-(5-(2-(benzyloxy)pyridin-4-yl)-2,3-dihydro-1H-inden-4-yl)-5-(methylsulfonyl)-4H-1,2,4-triazol-3-amine]"
3,≤ 5,"O=S(=O)(c1cccc(F)c1)c1nnc(Nc2c3c(cc4c2CCC4)CCC3)[nH]1 [Example 178, 5-((3-fluorophenyl)sulfonyl)-N-(1,2,3,5,6,7-hexahydro-s-indacen-4-yl)-4H-1,2,4-triazol-3-amine]"
4,≤ 10,"O=C1CCC(CNS(=O)(=O)c2nnc(Nc3c4c(cc5c3CCC5)CCC4)[nH]2)N1 (stereo not shown) [Example 121, 5-((1,2,3,5,6,7-hexahydro-s-indacen-4-yl)amino)-N-((5-oxopyrrolidin-2-yl)methyl)-4H-1,2,4-triazole-3-sulfonamide]"
5,≤ 10,"CN(C)C1CCN(S(=O)(=O)c2nnc(Nc3c(C4CCOCC4)ccc4c3CCC4)[nH]2)CC1 [Example 209, N,N-dimethyl-1-((5-((5-(tetrahydro-2H-pyran-4-yl)-2,3-dihydro-1H-inden-4-yl)amino)-4H-1,2,4-triazol-3-yl)sulfonyl)piperidin-4-amine]"
6,≤ 1,"O=S(=O)(CCc1ccccn1)c1nnc(Nc2c3c(cc4c2CCC4)CCC3)[nH]1 [Example 63, N-(1,2,3,5,6,7-hexahydro-s-indacen-4-yl)-3-((2-(pyridin-2-yl)ethyl)sulfonyl)-1H-1,2,4-triazol-5-amine]"
7,≤ 5,"CS(=O)(=O)c1nnc(Nc2c(-c3ccnc(OC4CCOCC4)c3)ccc3c2CCC3)[nH]1 [Example 342, 5-(methylsulfonyl)-N-(5-(2-((tetrahydro-2H-pyran-4-yl)oxy)pyridin-4-yl)-2,3-dihydro-1H-inden-4-yl)-4H-1,2,4-triazol-3-amine]"
8,≤ 10,"COCCCS(=O)(=O)c1nnc(Nc2c3c(cc4c2CCC4)CCC3)[nH]1 [Example 65, N-(1,2,3,5,6,7-hexahydro-s-indacen-4-yl)-3-((3-methoxypropyl)sulfonyl)-1H-1,2,4-triazol-5-amine]"
9,≤ 5,"CN1Cc2ccc(S(=O)(=O)c3n[nH]c(Nc4c5c(cc6c4CCC6)CCC5)n3)cc2C1=O [Example 180, 6-((5-((1,2,3,5,6,7-hexahydro-s-indacen-4-yl)amino)-1H-1,2,4-triazol-3-yl)sulfonyl)-2-methylisoindolin-1-one]"
10,≤ 5,"NC(=O)c1ccc(S(=O)(=O)c2nnc(Nc3c4c(cc5c3CCC5)CCC4)[nH]2)cc1 [Example 327, 4-((5-((1,2,3,5,6,7-hexahydro-s-indacen-4-yl)amino)-4H-1,2,4-triazol-3-yl)sulfonyl)benzamide]"
11,≤ 5,"COc1cc(-c2cc(C#N)c3c(c2Nc2nnc(S(=O)(=O)N4CCC(N(C)C)CC4)[nH]2)CCC3)ccn1 [Example 230, 7-((5-((4-(dimethylamino)piperidin-1-yl)sulfonyl)-4H-1,2,4-triazol-3-yl)amino)-6-(2-methoxypyridin-4-yl)-2,3-dihydro-1H-indene-4-carbonitrile]"
12,≤ 10,"O=S(=O)(c1ccccc1)c1nc(Nc2c(-c3cccnc3)cc(F)c3c2CCC3)n[nH]1 [Example 41, N-(7-fluoro-5-(pyridin-3-yl)-2,3-dihydro-1H-inden-4-yl)-5-(phenylsulfonyl)-1H-1,2,4-triazol-3-amine]"
13,≤ 10,"O=S(=O)(c1cncnc1)c1n[nH]c(Nc2c3c(cc4c2CCC4)CCC3)n1 [Example 169, N-(1,2,3,5,6,7-hexahydro-s-indacen-4-yl)-3-(pyrimidin-5-ylsulfonyl)-1H-1,2,4-triazol-5-amine]"
14,≤ 10,"CC(C)c1cc(F)cc(C(C)C)c1Nc1nnc(S(=O)(=O)c2ccccc2)[nH]1 [Example 42, N-(4-fluoro-2,6-diisopropylphenyl)-3-(phenylsulfonyl)-1H-1,2,4-triazol-5-amine]"
15,≤ 5,"N#Cc1ccc(S(=O)(=O)c2nnc(Nc3c4c(cc5c3CCC5)CCC4)[nH]2)cc1 [Example 184, 4-((5-((1,2,3,5,6,7-hexahydro-s-indacen-4-yl)amino)-4H-1,2,4-triazol-3-yl)sulfonyl)benzonitrile]"
16,≤ 5,"CC(O)Cn1cc(S(=O)(=O)c2nnc(Nc3c4c(cc5c3CCC5)CCC4)[nH]2)cn1 (stereo not shown) [Example 353, 1-(4-((5-((1,2,3,5,6,7-hexahydro-s-indacen-4-yl)amino)-4H-1,2,4-triazol-3-yl)sulfonyl)-1H-pyrazol-1-yl)propan-2-ol]"
17,≤ 5,"O=S(=O)(CCCN1CCOCC1)c1nnc(Nc2c3c(cc4c2CCC4)CCC3)[nH]1 [Example 50, N-(1,2,3,5,6,7-hexahydro-s-indacen-4-yl)-5-((3-morpholinopropyl)sulfonyl)-4H-1,2,4-triazol-3-amine]"
18,≤ 5,"O=S(=O)(c1nnc(Nc2c3c(cc4c2CCC4)CCC3)[nH]1)N1CC(c2ccccn2)C1 [Example 285, N-(1,2,3,5,6,7-hexahydro-s-indacen-4-yl)-5-((3-(pyridin-2-yl)azetidin-1-yl)sulfonyl)-4H-1,2,4-triazol-3-amine]"
19,≤ 5,"O=S(=O)(NCc1ccccc1)c1nnc(Nc2c3c(cc4c2CCC4)CCC3)[nH]1 [Example 86, N-benzyl-5-((1,2,3,5,6,7-hexahydro-s-indacen-4-yl)amino)-4H-1,2,4-triazole-3-sulfonamide]"
20,≤ 10,"O=S1(=O)CCN(S(=O)(=O)c2nnc(Nc3c4c(cc5c3CCC5)CCC4)[nH]2)CC1 [Example 298, 4-((5-((1,2,3,5,6,7-hexahydro-s-indacen-4-yl)amino)-4H-1,2,4-triazol-3-yl)sulfonyl)thiomorpholine 1,1-dioxide]"
21,≤ 5,"O=S(=O)(c1nnc(Nc2c3c(cc4c2CCC4)CCC3)[nH]1)C1CCCC1 [Example 64, 3-(Cyclopentylsulfonyl)-N-(1,2,3,5,6,7-hexahydro-s-indacen-4-yl)-1H-1,2,4-triazol-5-amine]"
22,≤ 5,"CC(C)c1cc(F)cc(-c2ccnc(OC3CCN(C)CC3)c2)c1Nc1nnc(S(C)(=O)=O)[nH]1 [Example 369, N-(4-fluoro-2-isopropyl-6-(2-((1-methylpiperidin-4-yl)oxy)pyridin-4-yl)phenyl)-5-(methylsulfonyl)-4H-1,2,4-triazol-3-amine]"
23,≤ 10,"O=S(=O)(c1nnc(Nc2c3c(cc4c2CCC4)CCC3)[nH]1)N1CCC2(CCCN2CC(F)(F)F)CC1 [Example 267, N-(1,2,3,5,6,7-hexahydro-s-indacen-4-yl)-5-((1-(2,2,2-trifluoroethyl)-1,8-diazaspiro[4.5]decan-8-yl)sulfonyl)-4H-1,2,4-triazol-3-amine]"
24,≤ 5,"Cn1cc(C#N)c(S(=O)(=O)c2nnc(Nc3c4c(cc5c3CCC5)CCC4)[nH]2)n1 [Example 351, 3-((5-((1,2,3,5,6,7-hexahydro-s-indacen-4-yl)amino)-4H-1,2,4-triazol-3-yl)sulfonyl)-1-methyl-1H-pyrazole-4-carbonitrile]"

row,Compound,IC50 [µM]
1,"O=S(=O)(c1nnc(Nc2c3c(cc4c2CCC4)CCC3)[nH]1)N1CCC2(CCCN2CCF)CC1 [Example 255, 5-((1-(2-fluoroethyl)-1,8-diazaspiro[4.5]decan-8-yl)sulfonyl)-N-(1,2,3,5,6,7-hexahydro-s-indacen-4-yl)-4H-1,2,4-triazol-3-amine]",≤ 1
